In patent publication US20260297080A1, “BICYCLIC COMPOUNDS AS CDK INHIBITORS” (BeOne Medicines I GmbH, priority 2022, published 2026) one finds IC50 data, which are given here for 23 molecules.

Broadly, the IC50 is the concentration that inhibits the measured activity by half. Low readings indicate inhibition by little substance, high ones a need for much substance.

One assay concerns the target CDK1/Cyclin B1 (Homo sapiens, UniProt P06493). In words: CDK1/Cyclin B1 Biochemical Assay (TR-FRET), 0.015 mM ATP. The settings on record: 0.15 μM Rb (Ser780)-biotin substrate, pH7.0, 60 min preincubation, 120 min reaction, room temperature. In short, it runs like this: (§1)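 TR-FRET assay with 0.15 μM Rb (Ser780)-biotin substrate and 0-10 μM compound in 50 mM HEPES pH7.0, 50 mM MgCl2, 1 mM DTT. ATP was 0.060 mM for CDK2/Cyclin E1 and 0.015 mM for CDK1/Cyclin B1. Kinase was preincubated with compound 60 min, reacted 120 min at room temperature, and IC50 was fitted (four-parameter) from the 665/620 nm ratio.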

For the next assay, the target named is CDK2/Cyclin E1 (Homo sapiens, UniProt P24941). Nature of the assay: CDK2/Cyclin E1 Biochemical Assay (TR-FRET), 0.060 mM ATP. The settings on record: 0.15 μM Rb (Ser780)-biotin substrate, pH7.0, 60 min preincubation, 120 min reaction, room temperature. In short, it runs like this:
as §1
A general note: Time-resolved FRET reads energy transfer from a long-lived donor to a nearby acceptor.

CDK1/Cyclin B1, sequence (P06493 whole entry): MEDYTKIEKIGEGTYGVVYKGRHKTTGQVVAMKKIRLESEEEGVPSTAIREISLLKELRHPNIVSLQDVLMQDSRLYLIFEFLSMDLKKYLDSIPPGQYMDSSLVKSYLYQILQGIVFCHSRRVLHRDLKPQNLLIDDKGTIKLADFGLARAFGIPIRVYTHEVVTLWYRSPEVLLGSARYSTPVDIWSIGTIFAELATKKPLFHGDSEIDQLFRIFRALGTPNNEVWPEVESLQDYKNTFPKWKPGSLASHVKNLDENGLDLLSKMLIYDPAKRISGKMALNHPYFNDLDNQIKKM
CDK1/Cyclin B1, sequence (P14635 whole entry partner): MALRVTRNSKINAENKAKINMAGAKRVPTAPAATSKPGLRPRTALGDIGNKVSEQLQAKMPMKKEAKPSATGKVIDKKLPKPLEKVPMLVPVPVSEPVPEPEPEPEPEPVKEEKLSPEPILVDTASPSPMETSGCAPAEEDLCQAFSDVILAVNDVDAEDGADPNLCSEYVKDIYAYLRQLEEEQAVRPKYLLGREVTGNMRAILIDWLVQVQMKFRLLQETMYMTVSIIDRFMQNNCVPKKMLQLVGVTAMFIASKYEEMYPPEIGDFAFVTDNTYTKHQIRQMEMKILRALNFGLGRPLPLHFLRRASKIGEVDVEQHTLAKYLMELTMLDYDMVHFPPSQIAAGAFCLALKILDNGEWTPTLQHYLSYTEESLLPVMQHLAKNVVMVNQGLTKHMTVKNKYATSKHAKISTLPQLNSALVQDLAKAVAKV

As to `CC(C)NC(=O)O[C@H]1CC[C@@H](c2cc(Nc3cc4c(cc3F)N(CCO)S(=O)(=O)C4)n[nH]2)C1` (single isomer, unassigned) [Example 296b, cis-3-(3-((6-fluoro-1-(2-hydroxyethyl)-2,2-dioxido-1,3-dihydrobenzo[c]isothiazol-5-yl)amino)-1H-pyrazol-5-yl)cyclopentyl isopropylcarbamate], the values for the concentration for half-maximal inhibition (IC50) against CDK1/Cyclin B1 and against CDK2/Cyclin E1 were 497 nM and 8.4 nM, respectively.

For `CC(C)NC(=O)O[C@H]1CC[C@@H](c2cc(Nc3ccc4c(c3)C(C)NS4(=O)=O)n[nH]2)C1` (single isomer, unassigned) [Example 321a, cis-3-(3-((3-methyl-1,1-dioxido-2,3-dihydrobenzo[d]isothiazol-5-yl)amino)-1H-pyrazol-5-yl)cyclopentyl isopropylcarbamate], the IC50 against CDK1/Cyclin B1 was 95 nM; on CDK2/Cyclin E1, 2.9 nM.

`CC(C)NC(=O)O[C@H]1CC[C@@H](c2cc(Nc3ccc4c(c3)C(C)NS4(=O)=O)n[nH]2)C1` (single isomer, unassigned) [Example 321b, cis-3-(3-((3-methyl-1,1-dioxido-2,3-dihydrobenzo[d]isothiazol-5-yl)amino)-1H-pyrazol-5-yl)cyclopentyl isopropylcarbamate]: the IC50 against CDK1/Cyclin B1 worked out at 15 nM; against CDK2/Cyclin E1 it was 0.6 nM.

`CC(C)NC(=O)O[C@H]1CC[C@@H](c2cc(Nc3ccc4c(c3)C(C)NS4(=O)=O)n[nH]2)C1` (single isomer, unassigned) [Example 321c, cis-3-(3-((3-methyl-1,1-dioxido-2,3-dihydrobenzo[d]isothiazol-5-yl)amino)-1H-pyrazol-5-yl)cyclopentyl isopropylcarbamate]: the results for the IC50 against CDK1/Cyclin B1 and against CDK2/Cyclin E1 were 26 nM and 1.3 nM, respectively.

Take `CC(C)NC(=O)O[C@H]1CC[C@@H](c2cc(Nc3ccc4c(c3)C(C)NS4(=O)=O)n[nH]2)C1` (single isomer, unassigned) [Example 321d, cis-3-(3-((3-methyl-1,1-dioxido-2,3-dihydrobenzo[d]isothiazol-5-yl)amino)-1H-pyrazol-5-yl)cyclopentyl isopropylcarbamate]: the figures for the IC50 against CDK1/Cyclin B1 and at CDK2/Cyclin E1 were 5.4 nM and 0.6 nM, respectively.

Turning to `CC1NS(=O)(=O)c2ccc(Nc3cc([C@@H]4CC[C@H](OC(=O)NC5(C)CC5)C4)[nH]n3)cc21` (single isomer, unassigned) [Example 322a, cis-3-(3-((3-methyl-1,1-dioxido-2,3-dihydrobenzo[d]isothiazol-5-yl)amino)-1H-pyrazol-5-yl)cyclopentyl(1-methylcyclopropyl)carbamate], the IC50 was 17 nM against CDK1/Cyclin B1 and 1.1 nM against CDK2/Cyclin E1.

For the molecule `CC1NS(=O)(=O)c2ccc(Nc3cc([C@@H]4CC[C@H](OC(=O)NC5(C)CC5)C4)[nH]n3)cc21` (single isomer, unassigned) [Example 322b, cis-3-(3-((3-methyl-1,1-dioxido-2,3-dihydrobenzo[d]isothiazol-5-yl)amino)-1H-pyrazol-5-yl)cyclopentyl(1-methylcyclopropyl)carbamate], the IC50 stood at 3.2 nM against CDK1/Cyclin B1 and 0.6 nM against CDK2/Cyclin E1.

In the case of `CC1NS(=O)(=O)c2ccc(Nc3cc([C@@H]4CC[C@H](OC(=O)NC5(C)CC5)C4)[nH]n3)cc21` (single isomer, unassigned) [Example 322c, cis-3-(3-((3-methyl-1,1-dioxido-2,3-dihydrobenzo[d]isothiazol-5-yl)amino)-1H-pyrazol-5-yl)cyclopentyl(1-methylcyclopropyl)carbamate], the IC50 amounted to 29 nM against CDK1/Cyclin B1 and 1.3 nM against CDK2/Cyclin E1.

`CC1NS(=O)(=O)c2ccc(Nc3cc([C@@H]4CC[C@H](OC(=O)NC5(C)CC5)C4)[nH]n3)cc21` (single isomer, unassigned) [Example 322d, cis-3-(3-((3-methyl-1,1-dioxido-2,3-dihydrobenzo[d]isothiazol-5-yl)amino)-1H-pyrazol-5-yl)cyclopentyl(1-methylcyclopropyl)carbamate]: the IC50 on CDK1/Cyclin B1 was 5.6 nM; against CDK2/Cyclin E1 it was 0.7 nM.

In the case of `CC[C@H](C)NC(=O)O[C@H]1CC[C@@H](c2cc(Nc3ccc4c(c3)CS(=O)(=O)N4)n[nH]2)C1` (single isomer, unassigned) [Example 323a], the IC50 on CDK1/Cyclin B1 was found to be 30 nM; against CDK2/Cyclin E1, 6.7 nM.

With `CC[C@H](C)NC(=O)O[C@H]1CC[C@@H](c2cc(Nc3ccc4c(c3)CS(=O)(=O)N4)n[nH]2)C1` (single isomer, unassigned) [Example 323b], the IC50 against CDK1/Cyclin B1 worked out at 17 nM; against CDK2/Cyclin E1, 6.2 nM.

Take `CN1c2ccc(Nc3cc([C@@H]4CC[C@H](OC(=O)NC(C)(C)CO)C4)[nH]n3)cc2CS1(=O)=O` (single isomer, unassigned) [Example 325a, cis-3-(3-((1-methyl-2,2-dioxido-1,3-dihydrobenzo[c]isothiazol-5-yl)amino)-1H-pyrazol-5-yl)cyclopentyl(1-hydroxy-2-methylpropan-2-yl)carbamate]: the IC50 against CDK1/Cyclin B1 amounted to 23 nM; against CDK2/Cyclin E1 it was 1.6 nM.

Turning to `CN1c2ccc(Nc3cc([C@@H]4CC[C@H](OC(=O)NC(C)(C)CO)C4)[nH]n3)cc2CS1(=O)=O` (single isomer, unassigned) [Example 325b, cis-3-(3-((1-methyl-2,2-dioxido-1,3-dihydrobenzo[c]isothiazol-5-yl)amino)-1H-pyrazol-5-yl)cyclopentyl(1-hydroxy-2-methylpropan-2-yl)carbamate], the IC50 came out at 71 nM at CDK1/Cyclin B1 and 2.3 nM against CDK2/Cyclin E1.

For the molecule `CN1c2ccc(Nc3cc([C@@H]4CC[C@H](OC(=O)NC(C)(C)CO)C4)[nH]n3)c(F)c2CS1(=O)=O` (single isomer, unassigned) [Example 327a, cis-3-(3-((4-fluoro-1-methyl-2,2-dioxido-1,3-dihydrobenzo[c]isothiazol-5-yl)amino)-1H-pyrazol-5-yl)cyclopentyl(1-hydroxy-2-methylpropan-2-yl)carbamate], the concentration for half-maximal inhibition (IC50) against CDK1/Cyclin B1 was 143 nM; against CDK2/Cyclin E1, 1.5 nM.

For the molecule `CN1c2ccc(Nc3cc([C@@H]4CC[C@H](OC(=O)NC(C)(C)CO)C4)[nH]n3)c(F)c2CS1(=O)=O` (single isomer, unassigned) [Example 327b, cis-3-(3-((4-fluoro-1-methyl-2,2-dioxido-1,3-dihydrobenzo[c]isothiazol-5-yl)amino)-1H-pyrazol-5-yl)cyclopentyl(1-hydroxy-2-methylpropan-2-yl)carbamate], the IC50 on CDK1/Cyclin B1 came to 56 nM; at CDK2/Cyclin E1 it was 1.7 nM.

Regarding `C[C@@H](CO)NC(=O)O[C@H]1CC[C@@H](c2cc(Nc3ccc4c(c3F)CNS4(=O)=O)n[nH]2)C1` (single isomer, unassigned) [Example 328a], the IC50 was found to be 315 nM against CDK1/Cyclin B1 and 10 nM on CDK2/Cyclin E1.

With `C[C@@H](CO)NC(=O)O[C@H]1CC[C@@H](c2cc(Nc3ccc4c(c3F)CNS4(=O)=O)n[nH]2)C1` (single isomer, unassigned) [Example 328b], the IC50 at CDK1/Cyclin B1 came out at 1970 nM; against CDK2/Cyclin E1, 31 nM.

Regarding `CN1c2ccc(Nc3cc([C@@H]4CC[C@H](OC(=O)NC5(C)COC5)C4)[nH]n3)c(F)c2CS1(=O)=O` (single isomer, unassigned) [Example 332a, cis-3-(3-((4-fluoro-1-methyl-2,2-dioxido-1,3-dihydrobenzo[c]isothiazol-5-yl)amino)-1H-pyrazol-5-yl)cyclopentyl(3-methyloxetan-3-yl)carbamate], the IC50 stood at 367 nM against CDK1/Cyclin B1 and 1.9 nM against CDK2/Cyclin E1.

In the case of `CN1c2ccc(Nc3cc([C@@H]4CC[C@H](OC(=O)NC5(C)COC5)C4)[nH]n3)c(F)c2CS1(=O)=O` (single isomer, unassigned) [Example 332b, cis-3-(3-((4-fluoro-1-methyl-2,2-dioxido-1,3-dihydrobenzo[c]isothiazol-5-yl)amino)-1H-pyrazol-5-yl)cyclopentyl(3-methyloxetan-3-yl)carbamate], the IC50 amounted to 160 nM against CDK1/Cyclin B1 and 3.5 nM at CDK2/Cyclin E1.

Take `CN1c2ccc(Nc3cc([C@@H]4CC[C@H](OC(=O)NC5(C)CCOC5)C4)[nH]n3)c(F)c2CS1(=O)=O` (single isomer, unassigned) [Example 349a, cis-3-(3-((4-fluoro-1-methyl-2,2-dioxido-1,3-dihydrobenzo[c]isothiazol-5-yl)amino)-1H-pyrazol-5-yl)cyclopentyl(3-methyltetrahydrofuran-3-yl)carbamate]: the 50% inhibitory concentration (IC50) against CDK1/Cyclin B1 came out at 131 nM; at CDK2/Cyclin E1, 1.8 nM.

Take `CN1c2ccc(Nc3cc([C@@H]4CC[C@H](OC(=O)NC5(C)CCOC5)C4)[nH]n3)c(F)c2CS1(=O)=O` (single isomer, unassigned) [Example 349b, cis-3-(3-((4-fluoro-1-methyl-2,2-dioxido-1,3-dihydrobenzo[c]isothiazol-5-yl)amino)-1H-pyrazol-5-yl)cyclopentyl(3-methyltetrahydrofuran-3-yl)carbamate]: the IC50 at CDK1/Cyclin B1 turned out to be 88 nM; against CDK2/Cyclin E1, 1.2 nM.

Take `CN1c2ccc(Nc3cc([C@@H]4CC[C@H](OC(=O)NC5(C)CCOC5)C4)[nH]n3)c(F)c2CS1(=O)=O` (single isomer, unassigned) [Example 349c, cis-3-(3-((4-fluoro-1-methyl-2,2-dioxido-1,3-dihydrobenzo[c]isothiazol-5-yl)amino)-1H-pyrazol-5-yl)cyclopentyl(3-methyltetrahydrofuran-3-yl)carbamate]: the IC50 stood at 78 nM against CDK1/Cyclin B1 and 1.9 nM on CDK2/Cyclin E1.

For `CN1c2ccc(Nc3cc([C@@H]4CC[C@H](OC(=O)NC5(C)CCOC5)C4)[nH]n3)c(F)c2CS1(=O)=O` (single isomer, unassigned) [Example 349d, cis-3-(3-((4-fluoro-1-methyl-2,2-dioxido-1,3-dihydrobenzo[c]isothiazol-5-yl)amino)-1H-pyrazol-5-yl)cyclopentyl(3-methyltetrahydrofuran-3-yl)carbamate], the IC50 was found to be 152 nM against CDK1/Cyclin B1 and 1.4 nM at CDK2/Cyclin E1.
